Columns and labels:
Format in all cases: physicochemical
[1] = Stability of Racecadotril in Water
Method: (§1) For comparative purposes, the stability of racecadotril was tested at room temperature and at 40° C. • 1. Pipet 1 mL of Racecadotril solution into a 100 mL volumetric flask (V.F.) • 2. Dilute to volume with the same buffer used in the solution preparation. • 3. […] Parameters may be modified to optimize chromatography. • The assay of Racecadotril is determined by using the external standard injected. The degradation products levels are determined by % peak area relative to the Racecadotril peak. [table] [table] Mobil Phase A: Phosphate buffer, pH 2.5 (Buffer prep: dissolve 1 g of potassium dihydrogen phosphate in water, adjust to pH 2.5 with phosphoric acid, dilute to 1000 mL with water) Mobil Phase B: 100% Acetonitrile

[2] = Stability of Racecadotril in Buffer Solutions
Method: as §1, with “analyzed when solubilized in pH 4.5 Acetate buffer” for “tested at room temperature”, “pH 4.5 Citrate buffer (Table 3).” for “at 40° C.”

[3] = Stability of Racecadotril in Beta-Hydroxypropyl-Cyclodextrin (Beta-HPCD)
Method: as §1, with “Formulations” for “For comparative purposes, the stability”, “in beta-hydroxypropyl-cyclodextrin were evaluated (Table 4).” for “was tested at room temperature and at 40° C.”

With `CC(=O)SCC(Cc1ccccc1)C(=O)NCC(=O)OCc1ccccc1` (racemic) [Racecadotril] the “Racecadotril (%) in Water at 40° C.” value ([1]; 1 Week) was 0%, the “Racecadotril (%) in Water at Room Temperature” value ([1]; 1 Week) was 1.0% and the “Racecadotril (%) in Water at 40° C.” value ([1]; 2 Weeks) was 0.2%. The “Racecadotril (%) in Water at Room Temperature” value ([1]; 2 Weeks) was 0.0%, the “Racecadotril (%) in Water at Room Temperature” value ([1]; 12 Hours) was 44.9% and the “Racecadotril (%) in Water at 40° C.” value ([1]; Initial) was 78.88%. The “Racecadotril (%) in Water at Room Temperature” value ([1]; Initial) was 74.88%, the racecadotril present ([1]; in water, at 1 week) was “less than 1%” and the “stability of racecadotril in water” value ([1]; room temperature and 40° C., after 12 hours) was “unstable”. For the same molecule, the “Racecadotril in pH 4.5 Acetate Buffer at 40° C. (% Racecadotril)” value ([2]; 1 Week) was 96.7%, the “Racecadotril in pH 4.5 Citrate Buffer at 40° C. (% Racecadotril)” value ([2]; 1 Week) was 95.3% and the “Racecadotril in pH 4.5 Acetate Buffer at 40° C. (% Racecadotril)” value ([2]; 2 Weeks) was 93.3%. The “Racecadotril in pH 4.5 Citrate Buffer at 40° C. (% Racecadotril)” value ([2]; 2 Weeks) was 91.2%, the “Racecadotril in pH 4.5 Acetate Buffer at 40° C. (% Racecadotril)” value ([2]; 3 Weeks) was 91.5% and the “Racecadotril in pH 4.5 Citrate Buffer at 40° C. (% Racecadotril)” value ([2]; 3 Weeks) was 89.0%. For the same molecule, the “Racecadotril in pH 4.5 Acetate Buffer at 40° C. (% Racecadotril)” value ([2]; 4 Weeks) was 88.0%, the “Racecadotril in pH 4.5 Citrate Buffer at 40° C. (% Racecadotril)” value ([2]; 4 Weeks) was 85.4% and the “Racecadotril in pH 4.5 Acetate Buffer at 40° C. (% Racecadotril)” value ([2]; 12 Hours) was 99.69%. For the same molecule, the “Racecadotril in pH 4.5 Citrate Buffer at 40° C. (% Racecadotril)” value ([2]; 12 Hours) was 99.63%, the “stability in buffer compared with water” value ([2]; 40° C. and 4 weeks) was “more stable in a buffer than in water” and the “Racecadotril in pH 4.5 Acetate Buffer at 40° C. (% Racecadotril)” value ([2]; Initial) was 99.86%. The “Racecadotril in pH 4.5 Citrate Buffer at 40° C. (% Racecadotril)” value ([2]; Initial) was 99.74%, the “stability in Beta-HPCD compared with buffers alone” value [3] was “stability is similar to that in buffers alone” and the “Racecadotril in Beta-HPCD at 40° C. (%) with pH Adjustment to 4.5, Acetate Buffer” value ([3]; 1 Week) was 96.16%. The “Racecadotril in Beta-HPCD at 40° C. (%) with pH Adjustment to 4.5, Citrate Buffer” value ([3]; 1 Week) was 96.20%, the “Racecadotril in Beta-HPCD at 40° C. (%) without pH Adjustment, Acetate Buffer” value ([3]; 1 Week) was 94.1% and the “Racecadotril in Beta-HPCD at 40° C. (%) without pH Adjustment, Citrate Buffer” value ([3]; 1 Week) was 93.6%. The “Racecadotril in Beta-HPCD at 40° C. (%) with pH Adjustment to 4.5, Acetate Buffer” value ([3]; 2 Weeks) was 92.7%, the “Racecadotril in Beta-HPCD at 40° C. (%) with pH Adjustment to 4.5, Citrate Buffer” value ([3]; 2 Weeks) was 92.91% and the “Racecadotril in Beta-HPCD at 40° C. (%) with pH Adjustment to 4.5, Acetate Buffer” value ([3]; 3 Weeks) was 88.95%. The “Racecadotril in Beta-HPCD at 40° C. (%) with pH Adjustment to 4.5, Citrate Buffer” value ([3]; 3 Weeks) was 89.59%, the “Racecadotril in Beta-HPCD at 40° C. (%) with pH Adjustment to 4.5, Acetate Buffer” value ([3]; 4 Weeks) was 85.84% and the “Racecadotril in Beta-HPCD at 40° C. (%) with pH Adjustment to 4.5, Citrate Buffer” value ([3]; 4 Weeks) was 86.80%. For the same molecule, the “Racecadotril in Beta-HPCD at 40° C. (%) with pH Adjustment to 4.5, Acetate Buffer” value ([3]; 12 Hours) was 98.07%, the “Racecadotril in Beta-HPCD at 40° C. (%) with pH Adjustment to 4.5, Citrate Buffer” value ([3]; 12 Hours) was 98.12% and the “Racecadotril in Beta-HPCD at 40° C. (%) without pH Adjustment, Acetate Buffer” value ([3]; 12 Hours) was 96.9%. For the same molecule, the “Racecadotril in Beta-HPCD at 40° C. (%) without pH Adjustment, Citrate Buffer” value ([3]; 12 Hours) was 96.9%, the “Racecadotril in Beta-HPCD at 40° C. (%) with pH Adjustment to 4.5, Acetate Buffer” value ([3]; Initial) was 99.58% and the “Racecadotril in Beta-HPCD at 40° C. (%) with pH Adjustment to 4.5, Citrate Buffer” value ([3]; Initial) was 99.58%. The “Racecadotril in Beta-HPCD at 40° C. (%) without pH Adjustment, Acetate Buffer” value ([3]; Initial) was 99.5% and the “Racecadotril in Beta-HPCD at 40° C. (%) without pH Adjustment, Citrate Buffer” value ([3]; Initial) was 99.3%.
